Laboratory results as given in paper PMC8185074, “Anchor extension: a structure-guided approach to design cyclic peptides targeting enzyme active sites” (Nature Communications, 2021).
Peptide text beside a SMILES is read from it.

Tests used:
HDAC6 = biological target: T1, HDAC6 (Homo sapiens, UniProt Q9UBN7); assay: HDAC6 inhibition, full IC50 measurement (Reaction Biology; fluorogenic p53 peptide RHKK(Ac)AMC); assay type: biochemical
T1 construct: purchased Reaction Biology Corporation (assay run by the CRO)
T1 sequence (Q9UBN7 1-1215): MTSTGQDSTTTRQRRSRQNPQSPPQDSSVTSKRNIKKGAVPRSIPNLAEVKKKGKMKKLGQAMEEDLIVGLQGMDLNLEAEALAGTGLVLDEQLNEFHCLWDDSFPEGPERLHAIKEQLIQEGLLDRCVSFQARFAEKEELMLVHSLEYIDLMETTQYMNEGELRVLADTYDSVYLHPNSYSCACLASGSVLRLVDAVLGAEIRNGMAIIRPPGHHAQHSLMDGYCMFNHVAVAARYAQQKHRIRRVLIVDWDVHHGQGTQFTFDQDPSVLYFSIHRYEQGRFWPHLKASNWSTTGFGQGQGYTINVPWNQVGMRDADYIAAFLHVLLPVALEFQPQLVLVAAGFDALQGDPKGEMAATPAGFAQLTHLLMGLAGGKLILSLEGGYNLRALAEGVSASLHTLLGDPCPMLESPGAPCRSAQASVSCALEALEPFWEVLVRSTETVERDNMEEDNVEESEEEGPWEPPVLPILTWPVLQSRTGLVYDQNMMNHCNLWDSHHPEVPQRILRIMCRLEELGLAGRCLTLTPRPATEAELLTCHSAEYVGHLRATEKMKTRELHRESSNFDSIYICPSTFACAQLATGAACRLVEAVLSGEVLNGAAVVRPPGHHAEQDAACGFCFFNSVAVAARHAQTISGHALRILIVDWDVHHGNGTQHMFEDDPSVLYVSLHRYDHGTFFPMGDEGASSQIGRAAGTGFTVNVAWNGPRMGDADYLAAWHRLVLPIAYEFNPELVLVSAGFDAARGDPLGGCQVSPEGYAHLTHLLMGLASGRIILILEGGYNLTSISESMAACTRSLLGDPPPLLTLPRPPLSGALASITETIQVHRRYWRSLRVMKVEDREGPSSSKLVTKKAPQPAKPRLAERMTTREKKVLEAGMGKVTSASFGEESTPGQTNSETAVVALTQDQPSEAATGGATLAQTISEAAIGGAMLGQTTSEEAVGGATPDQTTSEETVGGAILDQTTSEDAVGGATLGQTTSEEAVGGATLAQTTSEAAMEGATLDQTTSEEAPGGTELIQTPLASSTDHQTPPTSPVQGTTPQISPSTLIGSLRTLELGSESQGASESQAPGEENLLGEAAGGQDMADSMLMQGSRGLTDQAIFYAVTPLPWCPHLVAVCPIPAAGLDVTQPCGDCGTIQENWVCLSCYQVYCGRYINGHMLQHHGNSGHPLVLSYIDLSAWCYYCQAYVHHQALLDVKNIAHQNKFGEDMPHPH
Procedure, shortened: (§1)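 The reaction was a 1 h, 30 °C incubation of enzyme, acoustically added peptide and 50 μM p53-derived AMC substrate in pH 8.0 Tris buffer with NaCl, KCl, MgCl2, 1 mg/ml BSA and 1% DMSO. Duplicate values were averaged.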

HDAC3 = biological target: T2, HDAC3 (Homo sapiens, UniProt O15379); assay: HDAC3 inhibition, full IC50 measurement (Reaction Biology; fluorogenic p53 peptide RHKK(Ac)AMC); assay type: biochemical
T2 construct: purchased Reaction Biology Corporation (assay run by the CRO)
Procedure, shortened: as §1

T2 sequence (O15379 whole entry): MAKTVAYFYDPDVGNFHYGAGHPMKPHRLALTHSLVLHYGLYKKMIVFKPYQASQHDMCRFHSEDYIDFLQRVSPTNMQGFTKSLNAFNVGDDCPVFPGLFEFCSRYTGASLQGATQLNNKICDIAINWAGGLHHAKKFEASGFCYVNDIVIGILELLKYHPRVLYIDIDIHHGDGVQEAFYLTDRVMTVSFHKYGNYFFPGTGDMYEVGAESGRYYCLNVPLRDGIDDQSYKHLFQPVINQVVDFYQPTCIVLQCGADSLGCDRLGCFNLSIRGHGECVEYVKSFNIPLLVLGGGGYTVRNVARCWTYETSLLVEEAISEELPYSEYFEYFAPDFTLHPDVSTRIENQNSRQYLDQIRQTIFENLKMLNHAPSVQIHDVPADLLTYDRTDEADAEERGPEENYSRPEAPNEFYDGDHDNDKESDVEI
T2 sequence (Q9Y618 395-489 partner limits assumed): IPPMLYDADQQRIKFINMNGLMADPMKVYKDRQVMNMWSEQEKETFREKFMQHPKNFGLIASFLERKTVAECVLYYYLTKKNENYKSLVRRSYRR

SMILES	HDAC6 activity raw data (signal) (HDAC6; Conc. 1.00E-05 M, t1)	HDAC6 activity raw data (signal) (HDAC6; Conc. 1.00E-05 M, t2)	HDAC6 activity raw data (signal) (HDAC6; Conc. 1.11E-06 M, t1)	HDAC6 activity raw data (signal) (HDAC6; Conc. 1.11E-06 M, t2)	HDAC6 activity raw data (signal) (HDAC6; Conc. 1.23E-07 M, t1)	HDAC6 activity raw data (signal) (HDAC6; Conc. 1.23E-07 M, t2)	HDAC6 activity raw data (signal) (HDAC6; Conc. 1.37E-08 M, t1)	HDAC6 activity raw data (signal) (HDAC6; Conc. 1.37E-08 M, t2)	HDAC6 activity raw data (signal) (HDAC6; Conc. 1.52E-09 M, t1)	HDAC6 activity raw data (signal) (HDAC6; Conc. 1.52E-09 M, t2)	HDAC6 activity raw data (signal) (HDAC6; Conc. 3.33E-06 M, t1)	HDAC6 activity raw data (signal) (HDAC6; Conc. 3.33E-06 M, t2)	HDAC6 activity raw data (signal) (HDAC6; Conc. 3.70E-07 M, t1)	HDAC6 activity raw data (signal) (HDAC6; Conc. 3.70E-07 M, t2)	HDAC6 activity raw data (signal) (HDAC6; Conc. 4.12E-08 M, t1)	HDAC6 activity raw data (signal) (HDAC6; Conc. 4.12E-08 M, t2)	HDAC6 activity raw data (signal) (HDAC6; Conc. 4.57E-09 M, t1)	HDAC6 activity raw data (signal) (HDAC6; Conc. 4.57E-09 M, t2)	HDAC6 activity raw data (signal) (HDAC6; Conc. 5.08E-10 M, t1)	HDAC6 activity raw data (signal) (HDAC6; Conc. 5.08E-10 M, t2)	other results
CSCC[C@H]1NC(=O)[C@@H](CO)NC(=O)[C@H](CC(N)=O)NC(=O)[C@H](CC(=O)O)NC(=O)[C@@H]([C@H](C)O)NC(=O)[C@H](Cc2c[nH]c3ccccc23)NC(=O)[C@H](CCCCCS)NC(=O)[C@H](CCCCN)NC(=O)[C@@H](CC(=O)O)NC1=O [des2.1.1, SHA-Trp-dThr-Asp-Asn-dSer-dMet-dAsp-Lys] (HELM PEPTIDE1{D.N.[dS].[dM].[dD].K.[O=C([C@H](CCCCCS)N[*:1])[*:2]].W.[dT]}$PEPTIDE1,PEPTIDE1,1:R1-9:R2$$$V2.0)	-77	-1621	12750	10889	59972	56137	194975	185826	455139	435218	6654	2213	27729	16335	104749	101798	322592	306483	505663	482059	HDAC3 activity raw data (signal) (HDAC3; Conc. 1.00E-05 M, t1): 7144; HDAC3 activity raw data (signal) (HDAC3; Conc. 1.00E-05 M, t2): 5841; HDAC3 activity raw data (signal) (HDAC3; Conc. 1.11E-06 M, t1): 51390; HDAC3 activity raw data (signal) (HDAC3; Conc. 1.11E-06 M, t2): 54678; HDAC3 activity raw data (signal) (HDAC3; Conc. 1.23E-07 M, t1): 246556; HDAC3 activity raw data (signal) (HDAC3; Conc. 1.23E-07 M, t2): 273031; HDAC3 activity raw data (signal) (HDAC3; Conc. 1.37E-08 M, t1): 687389; HDAC3 activity raw data (signal) (HDAC3; Conc. 1.37E-08 M, t2): 738917; HDAC3 activity raw data (signal) (HDAC3; Conc. 1.52E-09 M, t1): 1292643; HDAC3 activity raw data (signal) (HDAC3; Conc. 1.52E-09 M, t2): 1253696; HDAC3 activity raw data (signal) (HDAC3; Conc. 3.33E-06 M, t1): 22832; HDAC3 activity raw data (signal) (HDAC3; Conc. 3.33E-06 M, t2): 23560; HDAC3 activity raw data (signal) (HDAC3; Conc. 3.70E-07 M, t1): 127387; HDAC3 activity raw data (signal) (HDAC3; Conc. 3.70E-07 M, t2): 114572; HDAC3 activity raw data (signal) (HDAC3; Conc. 4.12E-08 M, t1): 487885; HDAC3 activity raw data (signal) (HDAC3; Conc. 4.12E-08 M, t2): 457810; HDAC3 activity raw data (signal) (HDAC3; Conc. 4.57E-09 M, t1): 1034207; HDAC3 activity raw data (signal) (HDAC3; Conc. 4.57E-09 M, t2): 1052923; HDAC3 activity raw data (signal) (HDAC3; Conc. 5.08E-10 M, t1): 1393662; HDAC3 activity raw data (signal) (HDAC3; Conc. 5.08E-10 M, t2): 1455609
CC(C)C[C@H]1NC(=O)[C@H](Cc2c[nH]c3ccccc23)NC(=O)[C@H](CCCCCS)NC(=O)[C@@H](Cc2ccc(O)cc2)NC(=O)[C@@H](C(C)C)NC(=O)[C@H](Cc2c[nH]cn2)NC(=O)CNC(=O)CNC(=O)[C@@H](CO)NC1=O [des2.2.0, SHA-Trp-dLeu-dSer-Gly-Gly-His-dVal-dTyr] (HELM PEPTIDE1{G.G.H.[dV].[dY].[O=C([C@H](CCCCCS)N[*:1])[*:2]].W.[dL].[dS]}$PEPTIDE1,PEPTIDE1,1:R1-9:R2$$$V2.0)	16305	24452	83235	80880	144589	161069	141422	164330	132716	164682	43855	31435	128192	121991	140481	177888	138901	160834	128639	162548	HDAC3 activity raw data (signal) (HDAC3; Conc. 1.00E-05 M, t1): 556301; HDAC3 activity raw data (signal) (HDAC3; Conc. 1.00E-05 M, t2): 606764; HDAC3 activity raw data (signal) (HDAC3; Conc. 1.11E-06 M, t1): 913376; HDAC3 activity raw data (signal) (HDAC3; Conc. 1.11E-06 M, t2): 1016072; HDAC3 activity raw data (signal) (HDAC3; Conc. 1.23E-07 M, t1): 993017; HDAC3 activity raw data (signal) (HDAC3; Conc. 1.23E-07 M, t2): 1391457; HDAC3 activity raw data (signal) (HDAC3; Conc. 1.37E-08 M, t1): 1020645; HDAC3 activity raw data (signal) (HDAC3; Conc. 1.37E-08 M, t2): 1085089; HDAC3 activity raw data (signal) (HDAC3; Conc. 1.52E-09 M, t1): 1012899; HDAC3 activity raw data (signal) (HDAC3; Conc. 1.52E-09 M, t2): 1059045; HDAC3 activity raw data (signal) (HDAC3; Conc. 3.33E-06 M, t1): 841514; HDAC3 activity raw data (signal) (HDAC3; Conc. 3.33E-06 M, t2): 795799; HDAC3 activity raw data (signal) (HDAC3; Conc. 3.70E-07 M, t1): 980314; HDAC3 activity raw data (signal) (HDAC3; Conc. 3.70E-07 M, t2): 1161998; HDAC3 activity raw data (signal) (HDAC3; Conc. 4.12E-08 M, t1): 1033280; HDAC3 activity raw data (signal) (HDAC3; Conc. 4.12E-08 M, t2): 1094012; HDAC3 activity raw data (signal) (HDAC3; Conc. 4.57E-09 M, t1): 1032533; HDAC3 activity raw data (signal) (HDAC3; Conc. 4.57E-09 M, t2): 1050723; HDAC3 activity raw data (signal) (HDAC3; Conc. 5.08E-10 M, t1): 965053; HDAC3 activity raw data (signal) (HDAC3; Conc. 5.08E-10 M, t2): 1022182
